According to ChEMBL document CHEMBL3751668, “A Pyrazolo[3,4-d]pyrimidin-4-amine Derivative Containing an Isoxazole Moiety Is a Selective and Potent Inhibitor of RET Gatekeeper Mutants” (J Med Chem, 2016):

What was measured:
[1] = target: Dual specificity mitogen-activated protein kinase kinase 2 (Homo sapiens, UniProt P36507); test: Inhibition of recombinant human MEK2 by radiometric assay in presence of [gamma-33P]-ATP
[2] = target: Proto-oncogene tyrosine-protein kinase receptor Ret (Homo sapiens, UniProt P07949, M918T); test: Inhibition of human Ret M918T mutant by radiometric assay in presence of [gamma-33P]-ATP
TT [3] = test: Cytotoxicity against human TT cells assessed as suppression of anchorage-independent growth at 0.3 to 1 uM for 30 days by soft agar assay; type: functional
[4] = target: T1, Vascular endothelial growth factor receptor 2 (Homo sapiens, UniProt P35968); test: Inhibition of TEL-fused VEGFR2 (unknown origin) expressed in mouse BA/F3 cells assessed as cell growth inhibition; type: cell-based; settings: baf3
Cytochrome P450 1A2 = Cytochrome P450 1A2 (Homo sapiens, UniProt P05177); test: Inhibition of CYP1A2 (unknown origin); type: ADME
Cytochrome P450 1A2, sequence (P05177 whole entry): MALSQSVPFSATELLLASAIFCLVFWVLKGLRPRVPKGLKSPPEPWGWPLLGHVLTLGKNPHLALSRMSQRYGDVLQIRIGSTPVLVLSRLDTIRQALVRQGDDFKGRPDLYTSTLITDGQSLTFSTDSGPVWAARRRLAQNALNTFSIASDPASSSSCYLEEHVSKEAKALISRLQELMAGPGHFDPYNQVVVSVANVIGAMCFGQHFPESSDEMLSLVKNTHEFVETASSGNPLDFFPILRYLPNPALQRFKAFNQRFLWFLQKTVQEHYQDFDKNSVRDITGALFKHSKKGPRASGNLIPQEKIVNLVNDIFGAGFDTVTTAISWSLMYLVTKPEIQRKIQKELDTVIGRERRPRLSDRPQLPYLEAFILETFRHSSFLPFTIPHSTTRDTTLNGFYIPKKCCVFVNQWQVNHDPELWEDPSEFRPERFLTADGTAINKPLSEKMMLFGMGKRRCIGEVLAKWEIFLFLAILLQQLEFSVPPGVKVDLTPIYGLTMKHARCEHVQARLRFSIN

[5] = target: Tyrosine-protein kinase HCK (Homo sapiens, UniProt P08631); test: Inhibition of recombinant human HCK by radiometric assay in presence of [gamma-33P]-ATP
[6] = target: Proto-oncogene tyrosine-protein kinase receptor Ret (Homo sapiens, UniProt P07949, V804M); test: Inhibition of human Ret V804M mutant by radiometric assay in presence of [gamma-33P]-ATP
Cytochrome P450 2C19 = Cytochrome P450 2C19 (Homo sapiens, UniProt P33261); test: Inhibition of CYP2C19 (unknown origin); type: ADME
[7] = target: Proto-oncogene tyrosine-protein kinase receptor Ret (Homo sapiens, UniProt P07949, S891A); test: Inhibition of human Ret S891A mutant by radiometric assay in presence of [gamma-33P]-ATP
[8] = tested on: Proto-oncogene tyrosine-protein kinase receptor Ret (Homo sapiens), P07949 [V804L]; settings: BaF3
Proto-oncogene tyrosine-protein kinase receptor Ret (Homo sapiens), P07949 [V804L], sequence (P07949 whole entry V804L): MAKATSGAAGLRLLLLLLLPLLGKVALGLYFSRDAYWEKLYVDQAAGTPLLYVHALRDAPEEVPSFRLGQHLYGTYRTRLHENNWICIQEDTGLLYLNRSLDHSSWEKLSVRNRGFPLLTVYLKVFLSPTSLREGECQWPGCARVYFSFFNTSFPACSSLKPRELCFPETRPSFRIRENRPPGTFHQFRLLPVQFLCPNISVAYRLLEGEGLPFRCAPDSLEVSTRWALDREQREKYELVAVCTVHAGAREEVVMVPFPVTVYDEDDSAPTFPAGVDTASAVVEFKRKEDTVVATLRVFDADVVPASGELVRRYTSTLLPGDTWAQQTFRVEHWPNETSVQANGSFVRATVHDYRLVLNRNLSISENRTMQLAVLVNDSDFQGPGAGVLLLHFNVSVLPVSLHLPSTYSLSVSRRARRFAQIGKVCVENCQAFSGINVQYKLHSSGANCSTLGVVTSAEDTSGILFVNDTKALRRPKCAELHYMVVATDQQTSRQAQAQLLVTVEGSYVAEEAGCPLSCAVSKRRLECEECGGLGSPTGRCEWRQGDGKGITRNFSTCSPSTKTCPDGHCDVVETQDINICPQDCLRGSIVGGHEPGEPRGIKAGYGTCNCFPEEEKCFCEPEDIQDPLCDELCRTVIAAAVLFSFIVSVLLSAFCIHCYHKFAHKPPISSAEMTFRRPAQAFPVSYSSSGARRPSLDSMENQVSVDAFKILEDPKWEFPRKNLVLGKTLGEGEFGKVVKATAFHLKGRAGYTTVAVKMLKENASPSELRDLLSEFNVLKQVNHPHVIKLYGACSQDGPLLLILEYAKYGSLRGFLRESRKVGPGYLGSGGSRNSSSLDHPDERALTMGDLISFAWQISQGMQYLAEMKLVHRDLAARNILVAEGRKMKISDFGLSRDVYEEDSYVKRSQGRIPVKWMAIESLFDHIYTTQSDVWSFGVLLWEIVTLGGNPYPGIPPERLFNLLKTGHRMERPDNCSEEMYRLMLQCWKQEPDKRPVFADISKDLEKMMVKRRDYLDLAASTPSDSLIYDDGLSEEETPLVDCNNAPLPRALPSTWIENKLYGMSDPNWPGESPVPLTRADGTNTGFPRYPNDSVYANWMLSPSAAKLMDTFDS

[9] = Cell cycle arrest in human Nthy-ori 3-1 cells assessed as accumulation at G2 phase at 10 uM after 24 hrs by […] staining-based flow cytometric analysis; settings: nthy-ori 3-1, 24 h
[10] = target: Proto-oncogene tyrosine-protein kinase receptor Ret (Homo sapiens, UniProt P07949, Y791F); test: Inhibition of human Ret Y791F mutant by radiometric assay in presence of [gamma-33P]-ATP
[11] = Half life in human liver microsomes; type: ADME
[12] = target: Voltage-gated inwardly rectifying potassium channel KCNH2 (Homo sapiens, UniProt Q12809); test: Inhibition of human ERG assessed as prolongation of QT-interval at 100 uM by patch-clamp assay
[13] = target: Proto-oncogene tyrosine-protein kinase receptor Ret (Homo sapiens, UniProt P07949, V804L); test: Inhibition of human Ret V804L mutant by radiometric assay in presence of [gamma-33P]-ATP
[14] = Inhibition of recombinant human PKA by radiometric assay in presence of [gamma-33P]-ATP
[15] = tested on: Proto-oncogene tyrosine-protein kinase receptor Ret (Homo sapiens), P07949 [S891A]; settings: BaF3
Proto-oncogene tyrosine-protein kinase receptor Ret (Homo sapiens), P07949 [S891A], sequence (P07949 whole entry S891A): as the sequence (P07949 whole entry V804L) above, with L804V, S891A counted along it

[16] = tested on: Proto-oncogene tyrosine-protein kinase receptor Ret (Homo sapiens), P07949 [V804M]; settings: BaF3
Proto-oncogene tyrosine-protein kinase receptor Ret (Homo sapiens), P07949 [V804M], sequence (P07949 whole entry V804M): as the sequence (P07949 whole entry V804L) above, with L804M counted along it

[17] = Ratio of GI50 for human Nthy-ori-3-1 cells to GI50 for RET C634W mutant-mediated human TT cell growth inhibition
[18] = target: Vascular endothelial growth factor receptor 3 (Homo sapiens, UniProt P35916); test: Inhibition of recombinant human FLT4 by radiometric assay in presence of [gamma-33P]-ATP
[19] = target: T2, Proto-oncogene tyrosine-protein kinase receptor Ret (Homo sapiens, UniProt P07949); test: Inhibition of human wild type RET by radiometric assay in presence of [gamma-33P]-ATP
T2 sequence (P07949 whole entry): as the sequence (P07949 whole entry V804L) above, with L804V counted along it

[20] = target: Ribosomal protein S6 kinase beta-1 (Homo sapiens, UniProt P23443); test: Inhibition of recombinant human p70S6K by radiometric assay in presence of [gamma-33P]-ATP
[21] = target: T1, Vascular endothelial growth factor receptor 2; test: Inhibition of recombinant human VGFR2 by radiometric assay in presence of [gamma-33P]-ATP
Cytochrome P450 3A4 = Cytochrome P450 3A4 (Homo sapiens, UniProt P08684); test: Inhibition of CYP3A4 (unknown origin); type: ADME
[22] = Cytotoxicity against human Nthy-ori 3-1 cells after 10 days by MTT assay; type: cell-based
[23] = Cytotoxicity against mouse BAF3 cells after 48 hrs by MTT assay; type: cell-based
[24] = target: T2, Proto-oncogene tyrosine-protein kinase receptor Ret; settings: BaF3
Description: Inhibition of wild type TEL-fused RET (unknown origin) expressed in mouse BA/F3 cells assessed as cell growth inhibition after 48 hrs by MTT assay

[25] = Induction of apoptosis in human Nthy-ori 3-1 cells at 10 uM after 48 hrs by annexinV/PI staining-based flow cytometric analysis; type: cell-based; settings: nthy-ori 3-1, 48 h
[26] = target: Ribosomal protein S6 kinase alpha-1 (Homo sapiens, UniProt Q15418); test: Inhibition of recombinant human RSK1 by radiometric assay in presence of [gamma-33P]-ATP
Cytochrome P450 2C9 = Cytochrome P450 2C9 (Homo sapiens, UniProt P11712); test: Inhibition of CYP2C9 (unknown origin); type: ADME
[27] = target: Proto-oncogene tyrosine-protein kinase receptor Ret (Homo sapiens, UniProt P07949, G691S); test: Inhibition of human Ret G691S mutant by radiometric assay in presence of [gamma-33P]-ATP
[28] = tested on: Proto-oncogene tyrosine-protein kinase receptor Ret (Homo sapiens), P07949 [C634W]; settings: TT
Description: Inhibition of RET C634W mutant in human TT cells assessed as cell growth inhibition after 10 days by MTT assay

Cytochrome P450 2D6 = Cytochrome P450 2D6 (Homo sapiens, UniProt P10635); test: Inhibition of CYP2D6 (unknown origin); type: ADME
[29] = target: Dual specificity mitogen-activated protein kinase kinase 1 (Homo sapiens, UniProt Q02750); test: Inhibition of recombinant human MEK1 by radiometric assay in presence of [gamma-33P]-ATP
[30] = target: Tyrosine-protein kinase Fgr (Homo sapiens, UniProt P09769); test: Inhibition of recombinant human FGR by radiometric assay in presence of [gamma-33P]-ATP
[31] = Induction of apoptosis in human Nthy-ori 3-1 cells at 1 to 10 uM after 48 hrs by annexinV/PI staining-based flow cytometric analysis; type: cell-based; settings: nthy-ori 3-1, 48 h
[32] = Cell cycle arrest in human Nthy-ori 3-1 cells at 1 to 10 uM after 24 hrs by […] staining-based flow cytometric analysis; settings: nthy-ori 3-1, 24 h
TT [33] = test: Cytotoxicity against human TT cells assessed as suppression of anchorage-independent growth at 1 uM for 30 days by soft agar assay; type: functional

SMILES: CC(C)n1nc(-c2cc(C3CC3)on2)c2c(N)ncnc21
- IC50 [1]: 82 nM
- IC50 [2]: 6 nM
- Activity (TT [3]): 150 CFU
- GI50 [4]: 3000 nM
- IC50 (Cytochrome P450 1A2): 2000 nM
- IC50 [5]: 137 nM
- IC50 [6]: 4 nM
- IC50 (Cytochrome P450 2C19): > 30000 nM
- IC50 [7]: 2 nM
- GI50 [8]: 500 nM
- Activity [9]: Non-toxic
- IC50 [10]: 3 nM
- half-life [11]: 13 min
- inhibition (INH) [12]: Not Active
- IC50 [13]: 21 nM
- IC50 [14]: 39 nM
- GI50 [15]: 90 nM
- GI50 [16]: 320 nM
- RatioGI50 [17]: 50
- IC50 [18]: 72 nM
- IC50 [19]: 1.4 nM
- IC50 [20]: 23 nM
- IC50 [21]: 96 nM
- IC50 (Cytochrome P450 3A4): > 30000 nM
- GI50 at 240 h [22]: 13700 nM
- GI50 at 48 h [23]: > 10000 nM
- GI50 [24]: 80 nM
- Activity [25]: Non-toxic
- IC50 [26]: 311 nM
- IC50 (Cytochrome P450 2C9): > 30000 nM
- IC50 [27]: 10 nM
- GI50 [28]: 240 nM
- IC50 (Cytochrome P450 2D6): > 30000 nM
- IC50 [29]: 142 nM
- IC50 [30]: 65 nM

SMILES: Cn1nc(-c2cc(C3CC3)on2)c2c(N)ncnc21
- IC50 [6]: 182 nM
- GI50 [16]: 5560 nM
- IC50 [19]: 27 nM
- GI50 at 240 h [22]: 28700 nM
- GI50 at 48 h [23]: > 10000 nM
- GI50 [24]: 2670 nM
- GI50 [28]: 3510 nM

SMILES: Nc1ncnc2[nH]nc(-c3cc(C4CC4)on3)c12
- IC50 [6]: 354 nM
- GI50 [16]: > 10000 nM
- IC50 [19]: 52 nM
- GI50 at 240 h [22]: 510 nM
- GI50 at 48 h [23]: > 10000 nM
- GI50 [24]: 5340 nM
- GI50 [28]: > 10000 nM

SMILES: Nc1ncnc2c1c(-c1cc(C3CC3)on1)nn2C1CCOCC1
- IC50 [6]: 41 nM
- GI50 [16]: 1930 nM
- IC50 [19]: 5 nM
- GI50 at 240 h [22]: 32900 nM
- GI50 at 48 h [23]: > 10000 nM
- GI50 [24]: 440 nM
- GI50 [28]: 940 nM

SMILES: Nc1ncnc2c1c(-c1cc(C3CC3)on1)nn2C1CCCCC1
- IC50 [6]: 14 nM
- GI50 [16]: 2000 nM
- IC50 [19]: 2 nM
- GI50 at 240 h [22]: 32500 nM
- GI50 at 48 h [23]: > 10000 nM
- GI50 [24]: 520 nM
- GI50 [28]: 290 nM

SMILES: CC(C)n1nc(C#Cc2ccccc2)c2c(N)ncnc21
- IC50 [2]: 57 nM
- Activity (TT [3]): 150 CFU
- IC50 [6]: 2650 nM
- IC50 [7]: 54 nM
- GI50 [8]: 5430 nM
- Activity [31]: Non-toxic
- IC50 [10]: 14 nM
- IC50 [13]: 3130 nM
- GI50 [15]: 350 nM
- GI50 [16]: 2600 nM
- GI50 at 240 h [22]: 3580 nM
- GI50 at 48 h [23]: 16100 nM
- GI50 [24]: 610 nM
- IC50 [27]: 75 nM
- GI50 [28]: 2540 nM
- Activity [32]: Non-toxic

SMILES: CC(C)n1nc(-c2ccon2)c2c(N)ncnc21
- IC50 [6]: 903 nM
- GI50 [16]: 8940 nM
- IC50 [19]: 213 nM
- GI50 at 240 h [22]: 18600 nM
- GI50 at 48 h [23]: > 10000 nM
- GI50 [24]: 3210 nM
- GI50 [28]: 7920 nM

SMILES: COc1cc2nccc(Oc3ccc(NC(=O)C4(C(=O)Nc5ccc(F)cc5)CC4)cc3)c2cc1OC [CABOZANTINIB]
- Activity (TT [33]): <3 CFU
- GI50 [8]: 910 nM
- Activity [9]: Toxic
- GI50 [15]: 10 nM
- GI50 [16]: 890 nM
- GI50 at 240 h [22]: 4930 nM
- GI50 [24]: 50 nM
- Activity [25]: Non-toxic
- GI50 [28]: 120 nM

SMILES: CC(C)n1nc(-c2cc(C(C)(C)C)on2)c2c(N)ncnc21
- IC50 [6]: 2100 nM
- GI50 [16]: 7310 nM
- IC50 [19]: 210 nM
- GI50 at 240 h [22]: 24700 nM
- GI50 at 48 h [23]: > 10000 nM
- GI50 [24]: 6120 nM
- GI50 [28]: > 10000 nM

SMILES: CCCCCCCn1nc(-c2cc(C3CC3)on2)c2c(N)ncnc21
- IC50 [6]: 927 nM
- GI50 [16]: > 10000 nM
- IC50 [19]: 96 nM
- GI50 at 240 h [22]: 31600 nM
- GI50 at 48 h [23]: > 10000 nM
- GI50 [24]: > 10000 nM
- GI50 [28]: > 10000 nM

SMILES: CC(C)(O)Cn1nc(-c2cc(C3CC3)on2)c2c(N)ncnc21
- IC50 [6]: 217 nM
- GI50 [16]: 6750 nM
- IC50 [19]: 68 nM
- GI50 at 240 h [22]: 2820 nM
- GI50 at 48 h [23]: > 10000 nM
- GI50 [24]: 1770 nM
- GI50 [28]: 4250 nM
